Data from patent EP1561465A2, “Methods of use of fluoroquinolone compounds against bacteria” (LG Life Sciences, Ltd., priority 1999, dated 2001).
Values after ≈ are worked out from the molar mass of the structure shown. Like-named read-outs stand apart in the source and are kept apart here.

What was measured:
Format in all cases: cell-based
Aeromonas spp. = test: MIC by agar dilution (NCCLS M7-A4), 288 enteropathogenic isolates, gemifloxacin and 15 other antimicrobials; conditions: Aeromonas spp. N= 16
Salmonella spp. = test: MIC by agar dilution (NCCLS M7-A4), 288 enteropathogenic isolates, eight quinolones; conditions: for MIC: ciprofloxacin MIC ≥[…], read-out: MIC
Proteus mirabilis = test: MIC by agar dilution (NCCLS), 322 nosocomial Gram negative isolates, Athens 1998; conditions: Proteus mirabilis; n = 57 isolates
Streptococcus pneumoniae [1] = test: MIC by broth microdilution (NCCLS), dried MicroScan panels, clinical isolates 1998-1999; conditions: for MIC90: Streptococcus pneumoniae
Enterococcus faecalis = test: MIC by agar macrodilution (NCCLS), 373 Gram positive isolates, Athens 1998
Shigella spp. [2] = test: MIC by agar dilution (NCCLS M7-A4), 288 enteropathogenic isolates, eight quinolones; conditions: Shigella spp. (n = 21)
Enterococcus gallinarum = test: MIC by NCCLS broth microdilution, 1100 Japanese clinical isolates 1997-1998; conditions: Enterococcus gallinarum, GALLINARUM
Streptococcus pneumoniae [3] = test: as above; conditions: for MIC50 / MIC90 / MIC: Streptococcus pneumoniae; for MIC50: read-out: MIC50; for MIC90: read-out: MIC90; for MIC: Streptococcus pneumoniae quinolone resistant
Streptococcus pneumoniae [4] = test: MIC by two-fold serial agar dilution, Sensitivity Disk agar-N (Kitasato isolates); conditions: for MIC90: read-out: MIC90; for MIC: read-out: MIC Range
Shigella spp. [5] = test: MIC by NCCLS broth microdilution, 1100 Japanese clinical isolates 1997-1998; conditions: Shigella spp. (n=34)
[6] = system: Staphylococcus epidermidis; test: as above; conditions: for MIC50 / MIC90: Staphylococcus epidermidis
Enterobacter aerogenes = test: as above; conditions: Enterobacter aerogenes (n=35)
[7] = Streptococcus pneumoniae (302 isolates)
[8] = Streptococcus pneumoniae amoxicillin resistant (n=40)
[9] = Streptococcus pneumoniae amoxicillin susceptible (n=35)
[10] = Streptococcus pneumoniae erythromycin resistant (n=34)
[11] = Streptococcus pneumoniae erythromycin susceptible (n=11)
[12] = Staphylococcus epidermidis oxacillin susceptible (n=35)
[13] = Staphylococcus epidermidis oxacillin resistant (n=43)

Cc1c(F)c(N2CCNC(C)C2)cc2c1c(=O)c(C(=O)O)cn2C1CC1 (centres unmarked) [Grepafloxacin, grepafloxacin]
MIC (mg/L) Range (Aeromonas spp.): ≤0.015 to 0.12 mg/L
MIC (Aeromonas spp.; read-out: MIC (mg/L) 50%): 0.03 mg/L (≈ 0.0835 µM)
MIC (Aeromonas spp.; read-out: MIC (mg/L) 90%): 0.06 mg/L (≈ 0.167 µM)
MIC (Salmonella spp.; S. hadar (n = 2)): 1 µg/mL (≈ 2.78 µM)
MIC (Salmonella spp.; S. newport (n = 1)): 1 µg/mL (≈ 2.78 µM)
MIC (Salmonella spp.; S. virchow (n = 2)): 0.25 µg/mL (≈ 0.696 µM)
% Susceptible (Salmonella spp.; Salmonella spp. (n = 106)): 99%
MIC50 (Salmonella spp.; Salmonella spp. (n = 106)): 0.06 µg/mL (≈ 0.167 µM)
MIC90 (Salmonella spp.; Salmonella spp. (n = 106)): 0.25 µg/mL (≈ 0.696 µM)
MIC Range (Salmonella spp.; Salmonella spp. (n = 106)): 0.03 to 2 µg/mL
MIC (Salmonella spp.; Salmonella, S. tshiongwe (n = 1)): 2 µg/mL (≈ 5.56 µM)
MIC50 (Proteus mirabilis): 0.5 µg/mL (≈ 1.39 µM)
MIC90 (Proteus mirabilis): 16 µg/mL (≈ 44.5 µM)
MIC50 (Streptococcus pneumoniae [1]; [7]): 0.03 µg/mL (≈ 0.0835 µM)
MIC Range (Streptococcus pneumoniae [1]; [7]): ≤0.015 to 0.25 µg/mL
MIC90 (Streptococcus pneumoniae [1]; Erythromycin-resistant (86)): 0.12 µg/mL (≈ 0.334 µM)
MIC90 (Streptococcus pneumoniae [1]; Erythromycin-sensitive (216)): 0.25 µg/mL (≈ 0.696 µM)
MIC90 (Streptococcus pneumoniae [1]; Penicillin-intermediate (124)): 0.12 µg/mL (≈ 0.334 µM)
MIC90 (Streptococcus pneumoniae [1]; Penicillin-resistant (80)): 0.12 µg/mL (≈ 0.334 µM)
MIC90 (Streptococcus pneumoniae [1]; Penicillin-sensitive (98)): 0.12 µg/mL (≈ 0.334 µM)
MIC90 (Streptococcus pneumoniae [1]; [7]): 0.12 µg/mL (≈ 0.334 µM)
MIC distribution (µg/ml) 0.03 (Enterococcus faecalis): 0
MIC distribution (µg/ml) 0.06 (Enterococcus faecalis): 0
MIC distribution (µg/ml) 0.125 (Enterococcus faecalis): 0
MIC distribution (µg/ml) 0.25 (Enterococcus faecalis): 2
MIC distribution (µg/ml) 1 (Enterococcus faecalis): 22
MIC distribution (µg/ml) 2 (Enterococcus faecalis): 21
MIC distribution (µg/ml) 4 (Enterococcus faecalis): 6
MIC distribution (µg/ml) 8 (Enterococcus faecalis): 4
MIC distribution (µg/ml) 16 (Enterococcus faecalis): 2
MIC distribution (µg/ml) ≤0.015 (Enterococcus faecalis): 0
MIC distribution (µg/ml) ≥32 (Enterococcus faecalis): 19
MIC50 (Enterococcus faecalis; Enterococcus faecalis, n = 81 isolates, read-out: MIC50): 2 µg/mL (≈ 5.56 µM)
MIC90 (Enterococcus faecalis; Enterococcus faecalis, n = 81 isolates, read-out: MIC90): ≥ 32 µg/mL
MIC distribution (µg/ml) 0.5 (Enterococcus faecalis; number of isolates at MIC 0.5 µg/ml, n = 81): 5
% Susceptible (Shigella spp. [2]): 100%
MIC50 (Shigella spp. [2]): ≤ 0.015 µg/mL
MIC90 (Shigella spp. [2]): 0.03 µg/mL (≈ 0.0835 µM)
MIC Range (Shigella spp. [2]): ≤0.015 to 0.03 µg/mL

NC1CCN(c2nc3c(cc2F)c(=O)c(C(=O)O)cn3-c2ccc(F)cc2F)C1 (centres unmarked) [Tosufloxacin, tosufloxacin]
MIC (Enterococcus gallinarum): 0.125 µg/mL (≈ 0.309 µM)
MIC (Enterococcus gallinarum; Enterococcus gallinarum (vanC1), strain TMS1, read-out: MIC): 0.25 µg/mL (≈ 0.618 µM)
MIC (Enterococcus gallinarum; Enterococcus gallinarum (vanC1), strain TMS2, read-out: MIC): 0.5 µg/mL (≈ 1.24 µM)
MIC (Enterococcus gallinarum; Enterococcus gallinarum (vanC1), strain TMS3, read-out: MIC): 0.5 µg/mL (≈ 1.24 µM)
MIC Range (Streptococcus pneumoniae [3]; [8]): 0.063 to 4 µg/mL
MIC Range (Streptococcus pneumoniae [3]; [9]): 0.125 to 2 µg/mL
MIC Range (Streptococcus pneumoniae [3]; [10]): 0.063 to 4 µg/mL
MIC Range (Streptococcus pneumoniae [3]; [11]): 0.125 to 0.25 µg/mL
MIC50 (Streptococcus pneumoniae [3]; [8]): 0.25 µg/mL (≈ 0.618 µM)
MIC90 (Streptococcus pneumoniae [3]; [8]): 0.25 µg/mL (≈ 0.618 µM)
MIC50 (Streptococcus pneumoniae [3]; [9]): 0.25 µg/mL (≈ 0.618 µM)
MIC90 (Streptococcus pneumoniae [3]; [9]): 0.5 µg/mL (≈ 1.24 µM)
MIC50 (Streptococcus pneumoniae [3]; [10]): 0.25 µg/mL (≈ 0.618 µM)
MIC90 (Streptococcus pneumoniae [3]; [10]): 0.25 µg/mL (≈ 0.618 µM)
MIC50 (Streptococcus pneumoniae [3]; [11]): 0.25 µg/mL (≈ 0.618 µM)
MIC90 (Streptococcus pneumoniae [3]; [11]): 0.25 µg/mL (≈ 0.618 µM)
MIC (Streptococcus pneumoniae [3]; strain TMS1): 0.5 µg/mL (≈ 1.24 µM)
MIC (Streptococcus pneumoniae [3]; strain TMS2): 8 µg/mL (≈ 19.8 µM)
MIC50 (Streptococcus pneumoniae [4]; Ciprofloxacin-susceptible (94)): 0.125 µg/mL (≈ 0.309 µM)
MIC50 (Streptococcus pneumoniae [4]; Erythromycin-resistant (37)): 0.125 µg/mL (≈ 0.309 µM)
MIC50 (Streptococcus pneumoniae [4]; Minocycline-resistant (37)): 0.125 µg/mL (≈ 0.309 µM)
MIC50 (Streptococcus pneumoniae [4]; Streptococcus pneumoniae): 0.125 µg/mL (≈ 0.309 µM)
MIC90 (Streptococcus pneumoniae [4]; Streptococcus pneumoniae, 18 h, Ciprofloxacin-resistant (21), ciprofloxacin MIC ≥8 µg/ml): 8 µg/mL (≈ 19.8 µM)
MIC (Streptococcus pneumoniae [4]; Streptococcus pneumoniae, 18 h, Ciprofloxacin-resistant (21)): 0.25 to 16 µg/mL (≈ 0.618 to 39.6 µM)
MIC (Streptococcus pneumoniae [4]; Streptococcus pneumoniae, 18 h, Ciprofloxacin-susceptible (94)): 0.063 to 0.5 µg/mL (≈ 0.156 to 1.24 µM)
MIC (Streptococcus pneumoniae [4]; Streptococcus pneumoniae, 18 h, Erythromycin-resistant (37)): 0.063 to 4 µg/mL (≈ 0.156 to 9.89 µM)
MIC (Streptococcus pneumoniae [4]; Streptococcus pneumoniae, 18 h, Minocycline-resistant (37)): 0.063 to 4 µg/mL (≈ 0.156 to 9.89 µM)
MIC (Streptococcus pneumoniae [4]; Streptococcus pneumoniae, 18 h, Penicillin-resistant (19)): 0.063 to 0.5 µg/mL (≈ 0.156 to 1.24 µM)
MIC50 (Streptococcus pneumoniae [4]; Streptococcus pneumoniae, Ciprofloxacin-resistant (21), read-out: MIC50): 4 µg/mL (≈ 9.89 µM)
MIC90 (Streptococcus pneumoniae [4]; Streptococcus pneumoniae, Ciprofloxacin-susceptible (94)): 0.25 µg/mL (≈ 0.618 µM)
MIC90 (Streptococcus pneumoniae [4]; Streptococcus pneumoniae, Erythromycin-resistant (37)): 0.5 µg/mL (≈ 1.24 µM)
MIC90 (Streptococcus pneumoniae [4]; Streptococcus pneumoniae, Minocycline-resistant (37)): 0.5 µg/mL (≈ 1.24 µM)
MIC90 (Streptococcus pneumoniae [4]; Streptococcus pneumoniae, Penicillin-resistant (19)): 0.25 µg/mL (≈ 0.618 µM)
MIC50 (Shigella spp. [5]): 0.016 µg/mL (≈ 0.0396 µM)
MIC90 (Shigella spp. [5]): 0.016 µg/mL (≈ 0.0396 µM)
MIC Range (Shigella spp. [5]): ≤0.008 to 0.032 µg/mL
MIC Range [6, 12]: 0.032 to 16 µg/mL
MIC50 [6, 13]: 8 µg/mL (≈ 19.8 µM)
MIC90 [6, 13]: > 16 µg/mL
MIC50 [6, 12]: 0.063 µg/mL (≈ 0.156 µM)
MIC90 [6, 12]: 4 µg/mL (≈ 9.89 µM)
MIC Range (Enterobacter aerogenes): 0.016 to 0.125 µg/mL
MIC50 (Enterobacter aerogenes; Klebsiella aerogenes): 0.016 µg/mL (≈ 0.0396 µM)
MIC90 (Enterobacter aerogenes; Klebsiella aerogenes): 0.063 µg/mL (≈ 0.156 µM)
